The test addresses P2Y purinoceptor 12 (Homo sapiens, UniProt Q9H244). The test is described as follows: ChEBML_162514. The text has this: Ability to displace [3H]2-MeS-ADP from human Purinergic receptor P2Y12

Bounds are passed on as bounds.

Chain of P2Y purinoceptor 12 (Q9H244 whole entry): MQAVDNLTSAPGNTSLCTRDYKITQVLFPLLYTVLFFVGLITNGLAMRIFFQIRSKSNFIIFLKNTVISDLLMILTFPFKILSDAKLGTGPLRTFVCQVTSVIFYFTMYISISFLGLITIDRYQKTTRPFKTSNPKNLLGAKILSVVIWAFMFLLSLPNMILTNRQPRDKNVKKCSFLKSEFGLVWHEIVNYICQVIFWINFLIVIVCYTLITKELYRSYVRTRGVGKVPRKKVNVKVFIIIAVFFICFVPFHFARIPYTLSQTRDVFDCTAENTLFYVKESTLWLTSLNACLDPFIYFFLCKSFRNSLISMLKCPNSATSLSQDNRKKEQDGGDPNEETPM

In general, IC50 refers to the concentration needed to halve the response being measured. `O=C(CS(=O)(=O)Nc1nc2ccc(C3CCCCC3)cc2s1)C1C(=O)N2C(=NS1(=O)=O)Sc1cc(C3CCCCC3)ccc12` (stereo unspecified) [2-(7-Cyclohexyl-4-hydroxy-2,2-dioxo-2H-2lambda*6*,9-dithia-1,4a-diaza-fluoren-3-yl)-2-oxo-ethanesulfonic acid (6-cyclohexyl-benzothiazol-2-yl)-amide] came in with an IC50 of over 120 µM.

In turn, `O=C1CS(=O)(=O)N=C2Sc3cc(OC(F)(F)F)ccc3N12` [2,2-Dioxo-7-trifluoromethoxy-2H-2lambda*6*,9-dithia-1,4a-diaza-fluoren-4-ol] returned an IC50 of over 120 µM.

With `O=C(CS(=O)(=O)Nc1nc2ccc(Cl)cc2s1)C1C(=O)N2C(=NS1(=O)=O)Sc1cc(Cl)ccc12` (stereo unspecified) [2-(7-Chloro-4-hydroxy-2,2-dioxo-2H-2lambda*6*,9-dithia-1,4a-diaza-fluoren-3-yl)-2-oxo-ethanesulfonic acid (6-chloro-benzothiazol-2-yl)-amide], the IC50 amounted to 35 µM. In other words, the double-digit micromolar range.

With `O=C(CS(=O)(=O)Nc1nc2ccc(Oc3ccccc3)cc2s1)C1C(=O)N2C(=NS1(=O)=O)Sc1cc(Oc3ccccc3)ccc12` (stereo unspecified) [2-(4-Hydroxy-2,2-dioxo-7-phenoxy-2H-2lambda*6*,9-dithia-1,4a-diaza-fluoren-3-yl)-2-oxo-ethanesulfonic acid (6-phenoxy-benzothiazol-2-yl)-amide], the IC50 is over 50 µM.

With `O=C(CS(=O)(=O)Nc1nc2ccc(-c3ccccc3)cc2s1)C1C(=O)N2C(=NS1(=O)=O)Sc1cc(-c3ccccc3)ccc12` (stereo unspecified) [2-(4-Hydroxy-2,2-dioxo-7-phenyl-2H-2lambda*6*,9-dithia-1,4a-diaza-fluoren-3-yl)-2-oxo-ethanesulfonic acid (6-phenyl-benzothiazol-2-yl)-amide], the IC50 is over 50 µM.

For `O=C(CS(=O)(=O)Nc1nc2ccc([N+](=O)[O-])cc2s1)C1=C([O-])[n+]2c(sc3cc([N+](=O)[O-])ccc32)NS1(=O)=O` [2-(4-Hydroxy-7-nitro-2,2-dioxo-2H-2lambda*6*,9-dithia-1,4a-diaza-fluoren-3-yl)-2-oxo-ethanesulfonic acid (6-nitro-benzothiazol-2-yl)-amide], the half-maximal inhibitory concentration (IC50) was determined as 35 µM.

For the origin of these results see BindingDB's records for doi:10.1016/s0960-894x(01)00313-4 (Cor Therapeutics, 2001).
